According to ChEMBL document CHEMBL1201862, “PubChem BioAssay data set” (2004):
Calls of active or inactive are those of the source.

Columns and labels:
[1] = molecular target: Peroxisome proliferator-activated receptor gamma/Nuclear receptor coactivator 2 (Homo sapiens, UniProt P37231); assay: (§1) TR-FRET dose response biochemical High Throughput Screening assay for agonists of the steroid receptor coactivator 2 (SRC-2) recruitment by the peroxisome proliferator-activated receptor gamma (PPAR gamma): non-selective agonists. [Related pubchem assays: 1297, 1032 ]; type: functional
Sequence of Peroxisome proliferator-activated receptor gamma/Nuclear receptor coactivator 2 (P37231 whole entry): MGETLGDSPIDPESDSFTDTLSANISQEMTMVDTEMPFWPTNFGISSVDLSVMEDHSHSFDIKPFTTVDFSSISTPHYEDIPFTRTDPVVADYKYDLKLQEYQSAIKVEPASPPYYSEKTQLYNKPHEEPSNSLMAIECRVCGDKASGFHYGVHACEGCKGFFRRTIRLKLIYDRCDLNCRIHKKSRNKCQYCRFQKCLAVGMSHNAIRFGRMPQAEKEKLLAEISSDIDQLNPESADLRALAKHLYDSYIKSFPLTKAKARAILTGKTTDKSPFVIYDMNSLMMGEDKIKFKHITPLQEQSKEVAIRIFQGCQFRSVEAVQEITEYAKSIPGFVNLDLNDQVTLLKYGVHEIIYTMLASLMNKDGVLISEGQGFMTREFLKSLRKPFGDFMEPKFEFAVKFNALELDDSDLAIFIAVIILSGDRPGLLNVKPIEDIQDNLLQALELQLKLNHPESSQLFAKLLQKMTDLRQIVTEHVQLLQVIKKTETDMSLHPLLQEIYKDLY
Sequence of Peroxisome proliferator-activated receptor gamma/Nuclear receptor coactivator 2 (Q15596 whole entry, further chain): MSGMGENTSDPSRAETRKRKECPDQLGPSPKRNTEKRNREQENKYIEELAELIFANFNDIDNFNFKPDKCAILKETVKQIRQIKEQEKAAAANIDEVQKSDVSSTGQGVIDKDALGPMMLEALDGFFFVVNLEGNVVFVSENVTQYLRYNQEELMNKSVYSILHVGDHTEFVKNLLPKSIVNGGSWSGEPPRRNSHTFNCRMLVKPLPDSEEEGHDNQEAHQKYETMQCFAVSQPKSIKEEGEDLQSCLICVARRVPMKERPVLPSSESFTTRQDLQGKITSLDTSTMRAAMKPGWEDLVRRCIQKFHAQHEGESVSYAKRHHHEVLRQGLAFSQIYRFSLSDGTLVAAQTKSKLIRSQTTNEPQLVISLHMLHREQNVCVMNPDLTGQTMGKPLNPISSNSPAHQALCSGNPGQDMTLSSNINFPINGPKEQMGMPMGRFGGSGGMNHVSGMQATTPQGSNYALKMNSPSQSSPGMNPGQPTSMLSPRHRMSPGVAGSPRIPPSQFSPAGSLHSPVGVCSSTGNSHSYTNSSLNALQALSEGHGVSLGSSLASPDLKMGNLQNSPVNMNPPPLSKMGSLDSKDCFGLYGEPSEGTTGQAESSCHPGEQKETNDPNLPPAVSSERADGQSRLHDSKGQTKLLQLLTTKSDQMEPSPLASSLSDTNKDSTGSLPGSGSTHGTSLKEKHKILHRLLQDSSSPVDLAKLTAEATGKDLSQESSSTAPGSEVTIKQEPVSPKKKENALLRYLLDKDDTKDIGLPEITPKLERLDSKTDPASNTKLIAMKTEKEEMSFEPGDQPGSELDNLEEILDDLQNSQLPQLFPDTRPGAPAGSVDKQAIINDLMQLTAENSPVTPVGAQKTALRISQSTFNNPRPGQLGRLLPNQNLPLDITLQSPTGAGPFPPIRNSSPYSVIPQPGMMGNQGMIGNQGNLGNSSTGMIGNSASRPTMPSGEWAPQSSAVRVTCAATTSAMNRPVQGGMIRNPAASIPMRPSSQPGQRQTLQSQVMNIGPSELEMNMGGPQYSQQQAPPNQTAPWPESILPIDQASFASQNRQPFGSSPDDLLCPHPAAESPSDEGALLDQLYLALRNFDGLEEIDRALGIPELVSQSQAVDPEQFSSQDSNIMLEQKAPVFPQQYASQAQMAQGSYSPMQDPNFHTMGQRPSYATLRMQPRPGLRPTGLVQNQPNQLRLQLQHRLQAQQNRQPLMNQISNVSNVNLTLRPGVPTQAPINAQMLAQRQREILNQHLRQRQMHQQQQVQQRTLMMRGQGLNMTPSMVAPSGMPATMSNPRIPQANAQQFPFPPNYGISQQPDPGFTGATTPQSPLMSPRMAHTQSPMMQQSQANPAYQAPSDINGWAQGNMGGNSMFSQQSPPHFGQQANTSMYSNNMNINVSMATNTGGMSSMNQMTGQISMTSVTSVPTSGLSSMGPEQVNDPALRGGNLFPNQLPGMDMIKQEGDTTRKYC

[2] = molecular target: Peroxisome proliferator-activated receptor gamma/Nuclear receptor coactivator 3 (Homo sapiens, UniProt P37231); assay: as §1, with “3 (SRC-3)” for “2 (SRC-2)”, “1301 (Confirmation screen.), 1048 (Primary screen.)]” for “1297, 1032 ]”; type: functional
Sequence of Peroxisome proliferator-activated receptor gamma/Nuclear receptor coactivator 3 (P37231 whole entry): as the sequence (P37231 whole entry) above
Sequence of Peroxisome proliferator-activated receptor gamma/Nuclear receptor coactivator 3 (Q9Y6Q9 whole entry, further chain): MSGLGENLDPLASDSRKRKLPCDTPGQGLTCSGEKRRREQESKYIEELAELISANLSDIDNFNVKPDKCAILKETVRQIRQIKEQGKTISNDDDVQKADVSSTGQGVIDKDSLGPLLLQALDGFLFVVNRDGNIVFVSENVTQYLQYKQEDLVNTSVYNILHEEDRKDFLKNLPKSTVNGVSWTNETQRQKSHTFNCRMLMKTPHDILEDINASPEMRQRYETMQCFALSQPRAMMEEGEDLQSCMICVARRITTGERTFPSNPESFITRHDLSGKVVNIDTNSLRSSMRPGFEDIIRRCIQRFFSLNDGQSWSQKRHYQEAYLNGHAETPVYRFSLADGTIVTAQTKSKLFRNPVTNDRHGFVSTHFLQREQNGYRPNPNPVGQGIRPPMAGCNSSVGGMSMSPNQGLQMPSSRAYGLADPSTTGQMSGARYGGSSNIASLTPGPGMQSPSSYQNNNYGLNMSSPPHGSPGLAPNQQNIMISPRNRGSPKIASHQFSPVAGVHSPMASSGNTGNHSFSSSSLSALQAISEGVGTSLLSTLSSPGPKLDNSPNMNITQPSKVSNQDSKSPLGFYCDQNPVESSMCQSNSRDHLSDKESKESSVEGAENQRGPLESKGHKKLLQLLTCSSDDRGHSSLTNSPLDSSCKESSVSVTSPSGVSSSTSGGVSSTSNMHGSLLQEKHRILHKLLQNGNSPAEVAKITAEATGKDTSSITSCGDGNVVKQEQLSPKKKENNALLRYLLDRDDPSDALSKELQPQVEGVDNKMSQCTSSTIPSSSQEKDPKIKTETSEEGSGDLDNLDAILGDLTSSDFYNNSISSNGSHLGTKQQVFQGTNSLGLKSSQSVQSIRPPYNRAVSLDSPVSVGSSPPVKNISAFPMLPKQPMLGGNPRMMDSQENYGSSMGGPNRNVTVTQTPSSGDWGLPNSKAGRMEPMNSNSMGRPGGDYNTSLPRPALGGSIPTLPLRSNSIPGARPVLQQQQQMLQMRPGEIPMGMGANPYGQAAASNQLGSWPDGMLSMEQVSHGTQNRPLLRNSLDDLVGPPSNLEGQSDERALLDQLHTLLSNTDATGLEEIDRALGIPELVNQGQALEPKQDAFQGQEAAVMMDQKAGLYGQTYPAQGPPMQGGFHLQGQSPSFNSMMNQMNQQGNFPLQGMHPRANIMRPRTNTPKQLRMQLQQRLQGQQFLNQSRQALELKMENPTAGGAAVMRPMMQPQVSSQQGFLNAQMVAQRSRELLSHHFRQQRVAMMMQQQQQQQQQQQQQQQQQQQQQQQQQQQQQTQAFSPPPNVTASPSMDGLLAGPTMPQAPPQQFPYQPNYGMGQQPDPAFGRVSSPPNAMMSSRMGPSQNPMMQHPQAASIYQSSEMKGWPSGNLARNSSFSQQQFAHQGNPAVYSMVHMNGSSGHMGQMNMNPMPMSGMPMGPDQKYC

[3] = molecular target: Peroxisome proliferator-activated receptor gamma/Nuclear receptor coactivator 1 (Homo sapiens, UniProt P37231); assay: as §1, with “1 (SRC-1)” for “2 (SRC-2)”, “assays (depositor defined):AID1300, AID1808, AID504735, AID631]” for “assays: 1297, 1032 ]”; type: protein assay
[4] = molecular target: T1, Short transient receptor potential channel 4 (Mus musculus, UniProt Q9QUQ5); assay: mouse TRPC4 channel inhibitors, dose response, cell-based, HEK293 TRPC4/mu-opioid, Fluo-4 calcium (AID 434942); type: functional;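 note: potency of inhibitors blocking the TRPC4 calcium response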
T1 sequence (Q9QUQ5 whole entry): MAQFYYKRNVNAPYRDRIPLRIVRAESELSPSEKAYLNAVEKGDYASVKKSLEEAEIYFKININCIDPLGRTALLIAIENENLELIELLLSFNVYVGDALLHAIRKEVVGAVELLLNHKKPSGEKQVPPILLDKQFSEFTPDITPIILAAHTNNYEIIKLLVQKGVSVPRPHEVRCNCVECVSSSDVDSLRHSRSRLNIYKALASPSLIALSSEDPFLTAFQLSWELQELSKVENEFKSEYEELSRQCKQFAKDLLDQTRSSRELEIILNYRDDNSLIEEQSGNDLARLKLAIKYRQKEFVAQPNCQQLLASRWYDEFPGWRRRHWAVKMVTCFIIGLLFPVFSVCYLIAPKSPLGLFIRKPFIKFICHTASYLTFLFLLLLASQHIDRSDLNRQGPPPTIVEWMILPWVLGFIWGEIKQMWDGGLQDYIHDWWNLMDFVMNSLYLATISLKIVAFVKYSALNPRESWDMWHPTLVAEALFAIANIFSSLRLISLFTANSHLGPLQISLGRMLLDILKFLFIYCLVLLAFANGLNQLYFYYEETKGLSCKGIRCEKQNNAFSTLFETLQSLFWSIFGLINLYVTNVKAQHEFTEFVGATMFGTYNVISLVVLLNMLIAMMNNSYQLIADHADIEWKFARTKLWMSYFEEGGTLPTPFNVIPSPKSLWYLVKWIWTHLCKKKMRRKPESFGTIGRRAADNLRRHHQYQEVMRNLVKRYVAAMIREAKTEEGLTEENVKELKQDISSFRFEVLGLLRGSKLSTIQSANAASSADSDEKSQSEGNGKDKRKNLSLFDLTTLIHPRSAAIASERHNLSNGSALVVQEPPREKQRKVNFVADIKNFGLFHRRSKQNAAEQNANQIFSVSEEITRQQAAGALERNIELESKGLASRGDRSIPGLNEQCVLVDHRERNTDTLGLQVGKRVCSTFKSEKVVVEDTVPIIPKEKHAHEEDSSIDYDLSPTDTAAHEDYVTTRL

[5] = inhibitors of intracellular T. cruzi replication, confirmation, NIH3T3 host cells, beta-gal luminescence (AID 2044); type: functional, cell-based;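 note: intracellular parasites grown in NIH/3T3 mouse fibroblasts as host cells; luminescent beta-galactosidase reporter signal from transgenic T. cruzi replicating inside host cells; inhibitors lower the luminescence signal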
[6] = cytotoxicity toward NIH3T3 fibroblasts, dose response, counter-screen, cell-based, ATP luminescence, mouse fibroblasts (AID 2010); type: functional;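 note: cells exposed to compound for about 90 hours before reading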
Estrogen receptor beta = Estrogen receptor beta (Homo sapiens, UniProt Q92731);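 note: recombinant ER-beta bound to coactivator SRC1 peptide in presence of estradiol agonist; inhibitors block coactivator peptide binding and lower the FRET signal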
Sequence of Estrogen receptor beta (Q92731 whole entry): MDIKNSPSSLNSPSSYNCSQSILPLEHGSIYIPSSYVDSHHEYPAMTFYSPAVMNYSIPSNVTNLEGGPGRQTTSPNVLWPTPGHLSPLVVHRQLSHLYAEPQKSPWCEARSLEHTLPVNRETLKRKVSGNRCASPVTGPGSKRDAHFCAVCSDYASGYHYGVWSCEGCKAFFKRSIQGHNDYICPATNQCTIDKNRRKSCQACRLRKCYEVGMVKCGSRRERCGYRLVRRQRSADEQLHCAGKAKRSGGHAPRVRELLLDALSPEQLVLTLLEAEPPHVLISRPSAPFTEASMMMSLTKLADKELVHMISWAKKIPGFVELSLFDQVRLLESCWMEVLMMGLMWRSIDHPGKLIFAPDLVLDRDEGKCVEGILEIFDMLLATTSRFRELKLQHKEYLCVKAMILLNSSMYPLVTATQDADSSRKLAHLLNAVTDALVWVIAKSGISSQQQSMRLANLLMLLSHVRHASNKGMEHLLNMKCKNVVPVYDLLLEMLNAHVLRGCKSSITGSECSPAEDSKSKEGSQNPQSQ

Aminopeptidase N = molecular target: T2, Aminopeptidase N (Plasmodium falciparum FcB1/Columbia, UniProt O96935); assay: P. falciparum M1AAP inhibitors, biochemical, fluorogenic H-Leu-NHMec substrate, 1536-well (AID 1445); parameters: species or system Plasmodium falciparum 3D7, 3D7
T2 sequence (O96935 whole entry): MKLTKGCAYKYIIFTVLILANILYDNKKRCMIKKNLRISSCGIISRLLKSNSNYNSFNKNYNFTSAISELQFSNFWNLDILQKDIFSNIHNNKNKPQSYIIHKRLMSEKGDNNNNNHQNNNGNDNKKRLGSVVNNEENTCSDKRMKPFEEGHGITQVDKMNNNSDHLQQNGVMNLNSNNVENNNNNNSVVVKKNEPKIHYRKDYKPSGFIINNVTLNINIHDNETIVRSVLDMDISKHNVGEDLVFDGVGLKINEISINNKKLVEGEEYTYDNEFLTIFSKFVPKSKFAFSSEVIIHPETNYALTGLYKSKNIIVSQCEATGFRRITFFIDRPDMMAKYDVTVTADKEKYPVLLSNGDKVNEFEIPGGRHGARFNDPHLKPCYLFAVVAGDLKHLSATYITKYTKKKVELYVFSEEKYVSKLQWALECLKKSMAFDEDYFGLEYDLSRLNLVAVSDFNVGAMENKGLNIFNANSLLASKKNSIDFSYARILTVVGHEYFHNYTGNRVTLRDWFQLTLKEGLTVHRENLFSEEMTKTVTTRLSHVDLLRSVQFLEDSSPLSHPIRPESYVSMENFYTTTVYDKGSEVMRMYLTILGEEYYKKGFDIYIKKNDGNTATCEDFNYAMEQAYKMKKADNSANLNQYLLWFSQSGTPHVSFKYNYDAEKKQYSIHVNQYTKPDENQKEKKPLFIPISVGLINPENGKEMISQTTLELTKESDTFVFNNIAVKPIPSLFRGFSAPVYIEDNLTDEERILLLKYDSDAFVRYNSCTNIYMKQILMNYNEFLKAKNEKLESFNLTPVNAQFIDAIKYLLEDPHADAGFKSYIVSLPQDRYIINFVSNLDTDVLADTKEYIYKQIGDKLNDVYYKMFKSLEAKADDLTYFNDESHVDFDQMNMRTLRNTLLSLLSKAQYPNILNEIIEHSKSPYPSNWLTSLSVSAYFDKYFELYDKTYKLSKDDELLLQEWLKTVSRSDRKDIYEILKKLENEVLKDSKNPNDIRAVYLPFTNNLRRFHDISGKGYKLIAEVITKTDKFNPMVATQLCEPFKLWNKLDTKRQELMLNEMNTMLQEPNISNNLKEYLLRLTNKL

Cytochrome P450 2D6 = Cytochrome P450 2D6 (Homo sapiens, UniProt P10635);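 note: CYP2D6 member of a cytochrome P450 panel assay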
Cytochrome P450 3A4 = Cytochrome P450 3A4 (Homo sapiens, UniProt P08684);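 note: CYP3A4 tested as one member of a cytochrome P450 panel screen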
Cytochrome P450 2C19 = Cytochrome P450 2C19 (Homo sapiens, UniProt P33261); assay: Cytochrome panel assay with activity outcomes. Panel member name: p450-cyp2c19 Compounds with AC50 equal or less than 10 uM are considered active; type: functional; conditions: read-out: AC50
Sequence of Cytochrome P450 2C19 (P33261 whole entry): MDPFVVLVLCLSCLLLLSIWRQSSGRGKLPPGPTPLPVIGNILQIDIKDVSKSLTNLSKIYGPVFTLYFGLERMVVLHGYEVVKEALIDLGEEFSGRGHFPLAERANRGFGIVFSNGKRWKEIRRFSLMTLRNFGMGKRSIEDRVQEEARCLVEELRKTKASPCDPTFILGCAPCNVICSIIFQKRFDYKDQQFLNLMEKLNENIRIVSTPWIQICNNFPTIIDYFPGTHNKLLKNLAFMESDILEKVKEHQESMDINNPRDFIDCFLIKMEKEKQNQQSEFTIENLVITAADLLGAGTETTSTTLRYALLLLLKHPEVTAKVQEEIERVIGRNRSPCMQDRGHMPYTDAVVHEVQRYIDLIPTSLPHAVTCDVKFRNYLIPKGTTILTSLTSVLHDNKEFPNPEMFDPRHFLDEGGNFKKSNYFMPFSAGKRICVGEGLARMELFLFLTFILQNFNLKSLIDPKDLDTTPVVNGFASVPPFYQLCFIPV

[7] = microbe, parasite or virus in culture; type: functional; conditions: Mycobacterium tuberculosis
[8] = Luminescence Cell-Based Dose Retest to Confirm Inhibitors of Cancer Stem Cells. [Related pubchem assays (depositor defined):AID2717, AID2721]; type: functional; conditions: Homo sapiens
Cytochrome P450 1A2 = molecular target: T3, Cytochrome P450 1A2 (Homo sapiens, UniProt P05177);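 note: PubChem cytochrome P450 panel assay, CYP1A2 panel member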
T3 sequence (P05177 whole entry): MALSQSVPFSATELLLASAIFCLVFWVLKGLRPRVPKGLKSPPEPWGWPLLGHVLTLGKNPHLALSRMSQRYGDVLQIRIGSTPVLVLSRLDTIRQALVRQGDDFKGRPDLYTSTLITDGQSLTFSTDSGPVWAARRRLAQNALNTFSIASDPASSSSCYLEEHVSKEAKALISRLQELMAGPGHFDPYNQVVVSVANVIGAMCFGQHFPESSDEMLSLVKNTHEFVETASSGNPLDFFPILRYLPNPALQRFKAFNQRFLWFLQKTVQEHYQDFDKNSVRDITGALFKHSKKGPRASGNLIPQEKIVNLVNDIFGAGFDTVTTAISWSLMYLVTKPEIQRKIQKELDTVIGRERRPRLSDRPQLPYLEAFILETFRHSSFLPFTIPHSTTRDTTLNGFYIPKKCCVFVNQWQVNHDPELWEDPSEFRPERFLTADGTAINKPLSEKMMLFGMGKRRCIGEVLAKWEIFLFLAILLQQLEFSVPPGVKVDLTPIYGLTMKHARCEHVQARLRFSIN

Cytochrome P450 2C9 = Cytochrome P450 2C9 (Homo sapiens, UniProt P11712)
Genome polyprotein = Genome polyprotein (dengue virus type 2, UniProt P29990); assay: Dengue-2 NS5 methyltransferase inhibitors, primary screen, biochemical, confirmation dose response (AID 588689); type: functional
[9] = molecular target: T1, Short transient receptor potential channel 4; assay: mouse TRPC4 channel activators, dose response, cell-based, HEK293 TRPC4/mu-opioid, Fluo-4 calcium (AID 434937); type: functional
Beta-galactosidase = Beta-galactosidase (Escherichia coli, UniProt Q8VNN2); assay: beta-galactosidase enzyme inhibitors and activators, dose response, artefact control for CCR6 antagonist project, biochemical, E. coli enzyme, set 3 (AID 504712); type: functional
[10] = A Cell Based Secondary Assay To Explore Cytotoxicity of Compounds that Sensitize Mycobacterium Tuberculosis to Beta-Lactam Antibiotics.; type: functional
[11] = P. falciparum Dd2 growth inhibitors, dose response, SYBR Green, dry powder samples, set 9 (AID 1159568); type: functional, cell-based
[12] = P. falciparum Dd2 growth inhibitors, dose response, SYBR Green, dry powder samples (AID 1159566); type: functional, cell-based;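 note: potency for growth inhibition with lower SYBR green DNA signal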
[13] = HepG2 cell cytotoxicity, dose response, cytotoxicity control, cherry-picked samples (AID 1159577); type: functional, cell-based
[14] = P. falciparum Dd2 growth inhibitors, dose response, SYBR Green, cherry-picked samples (AID 1159567); type: functional, cell-based
[15] = P. falciparum ATP4 D1247Y mutant growth inhibitors, dose response, NITD609-resistant line, SYBR Green, dry powder (AID 1159571); type: functional, cell-based;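 note: parasites synchronized at ring stage by sorbitol before testing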
[16] = P. falciparum 3D7-ScDHODH growth inhibitors, dose response, SYBR Green, dry powder samples (AID 1159570); type: functional, cell-based;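 note: parasite growth measured after 72 hours of compound exposure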

Cc1ccc2nc(NC(=S)NC(=O)c3ccco3)sc2c1
EC50 [1]: 51.8 µM (not active) | EC50 [2]: > 79.4 µM (not active) | EC50 [3]: 43 µM (inactive)

CCCCC(CC)C(=O)Nc1ncc([N+](=O)[O-])s1 (stereo not given)
EC50 [4]: 7.5 µM (active) | EC50 [5]: 1.29 µM (active) | EC50 [6]: > 60 µM (not active)

COc1ccc(C(C(=O)NC2CCCC2)N(C(=O)c2ccco2)c2ccc3c(c2)OCO3)cc1OC (stereo not given)
IC50 (Estrogen receptor beta): > 50 µM (not active)

O=C(Cc1cc(=O)oc2cc(O)ccc12)NCC1CCC(C(=O)O)CC1 (stereo not given)
IC50 (Aminopeptidase N): 65.9 µM (active)

O=C(NCc1cccs1)C1CCN(S(=O)(=O)c2ccc(Cl)cc2)CC1
IC50 (Aminopeptidase N): 89.3 µM (active)

O=C(NCc1cccc(F)c1)C1CCN(C(=O)c2sccc2-n2cccc2)CC1
IC50 (Aminopeptidase N): 100 µM (active)

COc1ccc2cc(C#N)c(SCC(=O)NNC(=O)Cc3ccccc3)nc2c1
EC50 [1]: 11.1 µM (not active) | AC50 (Cytochrome P450 2D6): 2.51 µM (inconclusive) | EC50 [2]: > 79.4 µM (not active) | AC50 (Cytochrome P450 3A4): 1.26 µM (inconclusive) | EC50 [3]: 10.7 µM (inactive) | AC50 (Cytochrome P450 2C19): 0.0398 µM (inconclusive)

CCCCOC(=O)c1c(C)oc2ccc(NS(=O)(=O)c3ccc4c5c(cccc35)C(=O)N4)cc12
IC50 (Estrogen receptor beta): 13.5 µM (active) | CC50 [7]: > 40 µM (active) | AC50 [8]: 9.4 µM (active)

CCn1c(=O)cc(SCC(=O)NCc2ccc(C)cc2)c2ccccc21
EC50 [1]: > 26.5 µM (not active) | EC50 [2]: > 79.4 µM (not active) | EC50 [3]: > 79.4 µM (inactive)

c1ccc(Cn2c(CN3CCCC3)nc3ccccc32)cc1
AC50 (Cytochrome P450 1A2): 14.1 µM (inconclusive) | EC50 [4]: 2.11 µM (active) | AC50 (Cytochrome P450 2C9): 35.5 µM (inconclusive)

O=C(CNS(=O)(=O)c1ccc2ccccc2c1)OCC(=O)c1ccc(Br)s1
EC50 [1]: 4.58 µM (active) | EC50 [2]: 36.5 µM (not active) | EC50 [3]: 8.72 µM (active)

CC(C)Cn1c(-c2cccs2)nc2ccccc21
IC50 (Estrogen receptor beta): > 50 µM (not active)

O=C1/C(=C/c2nc3ccccc3[nH]2)SC(=S)N1NS(=O)(=O)c1ccccc1
IC50 (Genome polyprotein): 54.7 µM (active) | IC50 (Aminopeptidase N): 23.7 µM (active)

NC(=O)c1nsc(C(=O)N(Cc2ccccc2Cl)C(C(=O)NCC2CCCO2)c2ccc(O)cc2)c1N (stereo not given)
EC50 [4]: 5.96 µM (active)

COc1ccc(C(CNC(=O)Cc2ccc3ccccc3c2)N(C)C)cc1 (stereo not given)
EC50 [4]: 0.0533 µM (active) | EC50 [9]: 0.668 µM (active)

Oc1c(/C=N/Cc2ccncc2)sc2ccccc12
IC50 (Beta-galactosidase): > 66.6 µM (inactive)

CC1=NN(c2ccccc2)C(=O)C1/C=N/c1ccccc1O (stereo not given)
IC50 (Aminopeptidase N): 12.8 µM (active) | CC50 [10]: > 40 µM (active)

O=C(Nc1ccc2c(c1)[C@@H]1C[C@@H](CC(=O)N3CCc4ccccc4C3)O[C@@H](CO)[C@@H]1O2)c1ccc2c(c1)OCO2
AC50 [11]: 13 µM (active)

Cc1nc(N2[C@H](CO)[C@H](c3ccccc3)[C@H]2CNCC2CCCC2)sc1C
AC50 [12]: 1.12 µM (active) | AC50 [13]: > 39 µM (inactive) | AC50 [14]: 2.26 µM (active) | AC50 [15]: 1.42 µM (active) | AC50 [16]: 1.4 µM (active)

COc1ccccc1NC(=O)N1C[C@@H]2N[C@H](C1)[C@H]2c1ccc(/C=C/c2ccccc2)cc1
AC50 [11]: 4.56 µM (active) | AC50 [14]: 3.04 µM (active)

C[C@H](CO)N1C[C@H](C)[C@H](CN(C)Cc2ccc(-c3ccccc3)cc2)OCc2ccccc2-c2ccccc2C1=O
AC50 [13]: > 39 µM (inactive) | AC50 [14]: 5.19 µM (active)

O=C(Nc1ccc(Cl)cc1)N1C[C@@H]2[C@H](c3ccccc31)[C@@H](CO)N2CC1CCCCC1
AC50 [11]: 5.79 µM (active)

CO[C@H]1CN(C)C(=O)c2cc(NC(=O)c3cccc(F)c3)ccc2OC[C@H](C)N(C)C[C@H]1C
AC50 [11]: 22.8 µM (active)

O=C1C=CC(=O)N1
IC50 (Beta-galactosidase): > 66.6 µM (inactive)
